Reference: US7632833B2, “Mitotic kinesin inhibitors” (Merck & Co., Inc., priority 2004, dated 2009)

Biological target: T1, human poly-histidine tagged KSP motor domain (KSP(367H)) (Homo sapiens, UniProt P52732)
T1 construct: were used to amplify the motor domain and the neck linker region; made in house; host or cells: E. coli BL21 (DE3), vector pRSETa
T1 sequence (P52732 18-359 limits assumed): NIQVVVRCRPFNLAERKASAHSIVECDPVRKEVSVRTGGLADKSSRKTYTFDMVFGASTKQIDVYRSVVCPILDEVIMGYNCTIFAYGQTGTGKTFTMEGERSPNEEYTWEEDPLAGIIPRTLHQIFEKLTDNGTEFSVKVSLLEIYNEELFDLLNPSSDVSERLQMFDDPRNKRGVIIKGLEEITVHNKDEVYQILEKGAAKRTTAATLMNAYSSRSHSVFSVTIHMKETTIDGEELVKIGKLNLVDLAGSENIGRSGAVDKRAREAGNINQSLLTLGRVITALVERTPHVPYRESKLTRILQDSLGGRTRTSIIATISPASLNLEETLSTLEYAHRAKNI
Assay: Kinesin ATPase In Vitro Assay
Assay type: biochemical
Conditions: not given
Protocol: I. Kinesin ATPase In Vitro Assay
The N-terminal primer 5′-[…] (SEQ. ID. NO.: 1) and the C-terminal primer 5′-[…] […] (SEQ. ID. NO.: 2)
were used to amplify the motor domain and the neck linker region. The PCR products were digested with AseI and XhoI, ligated into the NdeI/XhoI digestion product of pRSETa (Invitrogen) and transformed into E. coli BL21 (DE3).
Cells were grown at 37° C. to an OD600 of 0.5. After cooling the culture to room temperature expression of KSP was induced with 100 μM IPTG and incubation was continued overnight. Cells were pelleted by centrifugation and washed once with ice-cold PBS. Pellets were flash-frozen and stored −80° C.
Protein Purification: Cell pellets were thawed on ice and resuspended in lysis buffer (50 mM K-HEPES, pH 8.0, 250 mM KCl, 0.1% Tween, 10 mM imidazole, 0.5 mM Mg-ATP, 1 mM PMSF, 2 mM benzimidine, 1× complete protease inhibitor cocktail (Roche)). Cell suspensions were incubated with 1 mg/ml lysozyme and 5 mM β-mercaptoethanol on ice for 10 minutes, followed by sonication (3×30 sec). All subsequent procedures were performed at 4° C. Lysates were centrifuged at 40,000×g for 40 minutes. Supernatants were diluted and loaded onto an SP Sepharose column (Pharmacia, 5 ml cartridge) in buffer A (50 mM K-HEPES, pH 6.8, 1 mM MgCl2, 1 mM EGTA, 10 μM Mg-ATP, 1 mM DTT) and eluted with a 0 to 750 mM KCl gradient in buffer A. Fractions containing KSP were pooled and incubated with Ni-NTA resin (Qiagen) for one hour. The resin was washed three times with buffer B (Lysis buffer minus PMSF and protease inhibitor cocktail), followed by three 15-minute incubations and washes with buffer B. Finally, the resin was incubated and washed for 15 minutes three times with buffer C (same as buffer B except for pH 6.0) and poured into a column. KSP was eluted with elution buffer (identical to buffer B except for 150 mM KCl and 250 mM imidazole). KSP-containing fractions were pooled, made 10% in sucrose, and stored at −80° C.
Microtubules are prepared from tubulin isolated from bovine brain. Purified tubulin (>97% MAP-free) at 1 mg/ml is polymerized at 37° C. in the presence of 10 μM paclitaxel, 1 mM DTT, 1 mM GTP in BRB80 buffer (80 mM K-PIPES, 1 mM EGTA, 1 mM MgCl2 at pH 6.8). The resulting microtubules are separated from non-polymerized tubulin by ultracentrifugation and removal of the supernatant. The pellet, containing the microtubules, is gently resuspended in 10 μM paclitaxel, 1 mM DTT, 50 μg/ml ampicillin, and 5 μg/ml chloramphenicol in BRB80.
The kinesin motor domain is incubated with microtubules, 1 mM ATP (1:1 MgCl2: Na-ATP), and compound at 23° C. in buffer containing 80 mM K-HEPES (pH 7.0), […], 1 mM DTT, 1 mM MgCl2, and 50 mM KCl. The reaction is terminated by a 2-10 fold dilution with a final buffer composition of 80 mM HEPES and 50 mM EDTA. […] The reaction is incubated for 10 minutes at 23° C., and the absorbance of the phospho-molybdate complex is measured at 540 nm.

Row | IC50 | Structure (SMILES)
1 | ≤ 30 µM | CC(=O)C1=NN2c3cc(F)ccc3OC[C@H]2[C@H]1c1ccccc1 [Compound 1-8a, (3R,4R)-1-(8-Fluoro-3-phenyl-3a,4-dihydro-3H-pyrazolo[5,1-c][1,4]benzoxazin-2-yl)ethanone]
2 | ≤ 30 µM | CC(=O)C1=NN2c3cc(F)ccc3OC[C@H]2[C@@]1(CCCO)c1ccccc1 [Compound 4-12, (3R,4R) 1-[8-fluoro-3-(3-hydroxypropyl)-3-phenyl-3a,4-dihydro-3H-pyrazolo[5,1-c][1,4]benzoxazin-2-yl]ethanone]
3 | ≤ 30 µM | CC(=O)C1=NN2c3cc(F)ccc3OCC2C1(CCCN(C)C)c1ccccc1 [Compound 4-13, (3R,4R) 1-{3-[3-(dimethylamino)propyl]-8-fluoro-3-phenyl-3a,4-dihydro-3H-pyrazolo[5,1-c][1,4]benzoxazin-2-yl}ethanone]
4 | ≤ 30 µM | CC(=O)C1=NN2c3cc(F)ccc3OCC2C1(CCCN1CCOCC1)c1ccccc1 [Compound 4-14, (3R,4R) 1-[8-fluoro-3-(3-morpholin-4-ylpropyl)-3-phenyl-3a,4-dihydro-3H-pyrazolo[5,1-c][1,4]benzoxazin-2-yl]ethanone]
5 | ≤ 30 µM | CC(=O)C1=NN2c3cc(C)ccc3OCC2C1(CCCN(C)C)c1ccccc1 [Compound 4-18, (3R,4R) 1-{3-[3-(dimethylamino)propyl]-8-methyl-3-phenyl-3a,4-dihydro-3H-pyrazolo[5,1-c][1,4]benzoxazin-2-yl}ethanone]
6 | ≤ 30 µM | CC(=O)C1=NN2c3cc(C)ccc3OCC2C1(CCCN1CCOCC1)c1ccccc1 [Compound 4-19, (3R,4R) 1-[8-methyl-3-(3-morpholin-4-ylpropyl)-3-phenyl-3a,4-dihydro-3H-pyrazolo[5,1-c][1,4]benzoxazin-2-yl]ethanone]
7 | ≤ 30 µM | CC(=O)C1=NN2c3cc(F)ccc3OCC2C1(CCCN1CCNC(=O)CC1)c1ccccc1 [Compound 4-21, 1-{3-[(3R,4R)-2-acetyl-8-fluoro-3-phenyl-3a,4-dihydro-3H-pyrazolo[5,1-c][1,4]benzoxazin-3-yl]propyl}-1,4-diazepan-5-one]
8 | ≤ 30 µM | CC(=O)C1=NN2c3cc(F)ccc3OCC2C1(CCCN1CCNCC1)c1ccccc1 [Compound 4-23, (3R,4R) 1-[8-fluoro-3-phenyl-3-(3-piperazin-1-ylpropyl)-3a,4-dihydro-3H-pyrazolo[5,1-c][1,4]benzoxazin-2-yl]ethanone]

Same assay, conditions: (3R,4R) enantiomeric form tested; kinesin motor domain with microtubules, 1 mM ATP, 23° C., free phosphate by quinaldine red/ammonium molybdate; read-out: IC50

Row | Structure (SMILES) | IC50
9 | CC(=O)C1=NN2c3cc(F)ccc3OCC2[C@@]1(CCCN1CC2C[C@@H]1CO2)c1ccccc1 (mixture of isomers) [Compound 4-15, (3R,4R) 1-{8-fluoro-3-[3-(2-oxa-5-azabicyclo[2.2.1]hept-5-yl)propyl]-3-phenyl-3a,4-dihydro-3H-pyrazolo[5,1-c][1,4]benzoxazin-2-yl}ethanone] | ≤ 30 µM
10 | CC(=O)C1=NN2c3cc(C)ccc3OCC2[C@@]1(CCCN1CC2C[C@@H]1CO2)c1ccccc1 (mixture of isomers) [Compound 4-20, (3R,4R) 1-{8-methyl-3-[3-(2-oxa-5-azabicyclo[2.2.1]hept-5-yl)propyl]-3-phenyl-3a,4-dihydro-3H-pyrazolo[5,1-c][1,4]benzoxazin-2-yl}ethanone] | ≤ 30 µM
11 | CON(C)C(=O)C1=NN2c3cc(F)ccc3OC[C@H]2[C@H]1c1ccccc1 [Compound 1-7, (3R,4R)-8-Fluoro-N-methoxy-N-methyl-3-phenyl-3a,4-dihydro-3H-pyrazolo[5,1-c][1,4]benzoxazine-2-carboxamide] | ≤ 30 µM
12 | CON(C)C(=O)C1=NN2c3cc(F)ccc3OC[C@H]2[C@@]1(CCCO)c1ccccc1 [Compound 4-11, (3R,4R) 8-fluoro-3-(3-hydroxypropyl)-N-methoxy-N-methyl-3-phenyl-3a,4-dihydro-3H-pyrazolo[5,1-c][1,4]benzoxazine-2-carboxamide] | ≤ 30 µM

Results, then the compound that gave them:

Row | IC50 | Structure (SMILES)
13 | ≤ 30 µM | CC(=O)C1=NN2c3cc(F)ccc3OC[C@H]2[C@@]1(CCCN1CCN(C(=O)OC(C)(C)C)CC1)c1ccccc1 [Compound 4-24, tert-butyl 4-{3-[(3R,4R)-2-acetyl-8-fluoro-3-phenyl-3a,4-dihydro-3H-pyrazolo[5,1-c][1,4]benzoxazin-3-yl]propyl}piperazine-1-carboxylate]
14 | ≤ 30 µM | CC(=O)C1=NN2c3cc(F)ccc3OC[C@H]2[C@@]1(CCCN1CCN(C(=O)CO)CC1)c1ccccc1 [Compound 4-25, 1-{(3R,4R)-8-fluoro-3-[3-(4-glycoloylpiperazin-1-yl)propyl]-3-phenyl-3a,4-dihydro-3H-pyrazolo[5,1-c][1,4]benzoxazin-2-yl}ethanone]
15 | ≤ 30 µM | COCC(=O)N1CCN(CCC[C@]2(c3ccccc3)C(C(C)=O)=NN3c4cc(F)ccc4OC[C@H]32)CC1 [Compound 4-26, 1-((3R,4R)-8-fluoro-3-{3-[4-(methoxyacetyl)piperazin-1-yl]propyl}-3-phenyl-3a,4-dihydro-3H-pyrazolo[5,1-c][1,4]benzoxazin-2-yl)ethanone]
16 | ≤ 30 µM | CC(=O)C1=NN2c3cc(F)ccc3OC[C@H]2[C@@]1(CCCN1CCN(C(N)=O)CC1)c1ccccc1 [Compound 4-27, 4-{3-[(3R,4R)-2-acetyl-8-fluoro-3-phenyl-3a,4-dihydro-3H-pyrazolo[5,1-c][1,4]benzoxazin-3-yl]propyl}piperazine-1-carboxamide]
17 | ≤ 30 µM | CNC(=O)N1CCN(CCC[C@]2(c3ccccc3)C(C(C)=O)=NN3c4cc(F)ccc4OC[C@H]32)CC1 [Compound 4-28, 4-{3-[(3R,4R)-2-acetyl-8-fluoro-3-phenyl-3a,4-dihydro-3H-pyrazolo[5,1-c][1,4]benzoxazin-3-yl]propyl}-N-methylpiperazine-1-carboxamide]
18 | ≤ 30 µM | CC(=O)C1=NN2c3cc(F)ccc3OC[C@H]2[C@@]1(CCCN1CCN(C(=O)N(C)C)CC1)c1ccccc1 [Compound 4-29, 4-{3-[(3R,4R)-2-acetyl-8-fluoro-3-phenyl-3a,4-dihydro-3H-pyrazolo[5,1-c][1,4]benzoxazin-3-yl]propyl}-N,N-dimethylpiperazine-1-carboxamide]
19 | ≤ 30 µM | CC(=O)C1=NN2c3cc(F)ccc3OC[C@H]2[C@@]1(CCCN1CCN(C(=O)C(C)(C)C)CC1)c1ccccc1 [Compound 4-30, 1-((3R,4R)-3-{3-[4-(2,2-dimethylpropanoyl)piperazin-1-yl]propyl}-8-fluoro-3-phenyl-3a,4-dihydro-3H-pyrazolo[5,1-c][1,4]benzoxazin-2-yl)ethanone]
20 | ≤ 30 µM | COC(=O)C(=O)N1CCN(CCC[C@]2(c3ccccc3)C(C(C)=O)=NN3c4cc(F)ccc4OC[C@H]32)CC1 [Compound 4-31, methyl (4-{3-[(3R,4R)-2-acetyl-8-fluoro-3-phenyl-3a,4-dihydro-3H-pyrazolo[5,1-c][1,4]benzoxazin-3-yl]propyl}piperazin-1-yl)(oxo)acetate]
21 | ≤ 30 µM | COC(=O)CC(=O)N1CCN(CCC[C@]2(c3ccccc3)C(C(C)=O)=NN3c4cc(F)ccc4OC[C@H]32)CC1 [Compound 4-32, methyl 3-(4-{3-[(3R,4R)-2-acetyl-8-fluoro-3-phenyl-3a,4-dihydro-3H-pyrazolo[5,1-c][1,4]benzoxazin-3-yl]propyl}piperazin-1-yl)-3-oxopropanoate]
22 | ≤ 30 µM | CC(=O)C1=NN2c3cc(F)ccc3OC[C@H]2[C@@]1(CCCN1CCN(C(=O)c2ccco2)CC1)c1ccccc1 [Compound 4-33, 1-((3R,4R)-8-fluoro-3-{3-[4-(2-furoyl)piperazin-1-yl]propyl}-3-phenyl-3a,4-dihydro-3H-pyrazolo[5,1-c][1,4]benzoxazin-2-yl)ethanone]
